Test results: ChEMBL document CHEMBL1136657, “Novel ether derivatives of mannopeptimycin glycopeptide antibiotic” (2003)
In brackets after ≈: the same amount, converted by molar mass.

What was measured:
Assay type in all cases: functional
[1] = tested on: Candida albicans; test: Minimum inhibitory concentration against Candida albicans was determined
[2] = tested on: Enterococcus faecium; test: Minimum inhibitory concentration against Enterococcus faecium was determined; Range is […] ug/mL
[3] = tested on: Enterococcus faecalis; test: Minimum inhibitory concentration against Enterococcus faecalis was determined; Range is […] ug/mL
[4] = Minimum inhibitory concentration against Gram(-) sp. was determined; Range is […] ug/mL
[5] = tested on: Staphylococcus aureus; test: Minimum inhibitory concentration against Staphylococcus aureus (MRCNS) was determined
[6] = tested on: Staphylococcus aureus; test: Minimum inhibitory concentration against Staphylococcus aureus (MRSA) was determined; Range is 32-64 ug/mL
[7] = tested on: Staphylococcus aureus; test: Minimum inhibitory concentration against Staphylococcus aureus (MSCNS) was determined
[8] = tested on: Streptococcus; test: Minimum inhibitory concentration against Streptococcus was determined; […]
[9] = tested on: Staphylococcus aureus; test: Minimum inhibitory concentration against Staphylococcus aureus (MSSA) was determined; Range is 32-64 ug/mL
[10] = tested on: Enterococcus faecalis; test: Minimum inhibitory concentration against Enterococcus faecalis was determined; Range is 8-16 ug/mL
[11] = Minimum inhibitory concentration against Gram(-) sp. was determined
[12] = tested on: Staphylococcus aureus; test: Minimum inhibitory concentration against Staphylococcus aureus (MSCNS) was determined; Range is 1-8 ug/mL
[13] = tested on: Staphylococcus aureus; test: Minimum inhibitory concentration against Staphylococcus aureus (MRSA) was determined; Range is 4-8 ug/mL
[14] = tested on: Streptococcus; test: Minimum inhibitory concentration against Streptococcus was determined; Range is <=0.12-2 ug/mL
[15] = tested on: Staphylococcus aureus; test: Minimum inhibitory concentration against Staphylococcus aureus (MSSA) was determined; Range is 4-8 ug/mL
[16] = tested on: Enterococcus faecium; test: Minimum inhibitory concentration against Enterococcus faecium was determined; Range is 8-16 ug/mL

| MIC [1] [µg/mL] | MIC [2] [µg/mL] | MIC [3] [µg/mL] | MIC [4] [µg/mL] | MIC [5] [µg/mL] | MIC [6] [µg/mL] | MIC [7] [µg/mL] | MIC [8] [µg/mL] | MIC [9] [µg/mL] | MIC [10] [µg/mL] | MIC [11] [µg/mL] | MIC [12] [µg/mL] | MIC [13] [µg/mL] | MIC [14] [µg/mL] | MIC [15] [µg/mL] | MIC [16] [µg/mL] | SMILES |
| --- | --- | --- | --- | --- | --- | --- | --- | --- | --- | --- | --- | --- | --- | --- | --- | --- |
| 128 (≈ 86.6 µM) | 16 (≈ 10.8 µM) | 64 (≈ 43.3 µM) | > 128 | 32 (≈ 21.7 µM) | 32 (≈ 21.7 µM) | 16 (≈ 10.8 µM) | 2 (≈ 1.35 µM) | 32 (≈ 21.7 µM) | – | – | – | – | – | – | – | C[C@@H](c1ccccc1)[C@@H]1NC(=O)CNC(=O)[C@H](CO)NC(=O)[C@@H]([C@@H](O)[C@@H]2CN=C(N)N2[C@H]2O[C@H](O)[C@@H](O)[C@H](O)[C@@H]2O)NC(=O)[C@H]([C@@H](O)[C@@H]2CN=C(N)N2)NC(=O)[C@@H](Cc2ccc(O[C@H]3O[C@H](CO)[C@@H](O[C@H]4O[C@H](CO)[C@@H](O)[C@H](O)[C@@H]4OCc4ccc(OCc5ccccc5)cc4)[C@H](O)[C@@H]3O)cc2)NC1=O |
| > 128 | – | – | – | 4 (≈ 2.71 µM) | – | – | – | – | 8 (≈ 5.41 µM) | > 128 | 1 (≈ 0.677 µM) | 4 (≈ 2.71 µM) | ≤ 0.12 | 4 (≈ 2.71 µM) | 8 (≈ 5.41 µM) | C[C@@H](c1ccccc1)[C@@H]1NC(=O)CNC(=O)[C@H](CO)NC(=O)[C@@H]([C@@H](O)[C@@H]2CN=C(N)N2[C@H]2O[C@H](O)[C@@H](O)[C@H](O)[C@@H]2O)NC(=O)[C@H]([C@@H](O)[C@@H]2CN=C(N)N2)NC(=O)[C@@H](Cc2ccc(O[C@H]3O[C@H](CO)[C@@H](O[C@H]4O[C@H](CO)[C@@H](O)[C@H](OCc5ccc(OCc6ccccc6)cc5)[C@@H]4O)[C@H](O)[C@@H]3O)cc2)NC1=O |
